Test [1] has as its system Clonic Seizures Caused by Pentylenetetrazole in Rats. Description: Protection against clonic seizures caused by pentylenetetrazole in rats. The test is classed as in vivo. The note with it: Rattus norvegicus; dose 25.0 mg/kg, oral or i.p.; pentylenetetrazole 23 mg/kg i.v. at 30 or 60 min; read-out: % of Rats Protected. The procedure:
The anti-anxiety and anticonvulsant properties of the novel compounds of the present invention have been established in a test which indicates anxiolytic and antiepileptic activity by the measure of protection from convulsions resulting from the administration of pentylenetetrazole. Single or graded dose levels of the test compounds were administered orally or intraperitoneally in a 2% starch vehicle, containing 0.5% v/v polyethylene glycol and one drop of Polysorbate 80 to groups of at least 4 rats. At 30 or 60 minutes, the rats were treated intravenously with pentylenetetrazole at a dose of 23 mg/kg of body weight. This dose is estimated to cause clonic seizures in 99% of unprotected rats. It has been reported [R. T. Hill and D. H. Tedeschi, "Animal Testing and Screening Procedures in Evaluating Psychotropic Drugs" in "An Introduction to Psychopharmacology", Eds. R. R. Rech and K. E. Moore, Raven Press, New York, pp 237-288 (1971)] that there is a high degree of correlation between antagonism of pentylenetetrazole seizures in rats and anti-anxietyor anticonvulsant effects in higher warm-blooded animals.

In test [2] the test system is Nonconditioned Passive Avoidance in Rats. Description: Nonconditioned passive avoidance (conflict) test in rats. Type of test: in vivo, rat (Wistar). The note with it: oral or i.p. On the set-up: key: Active: considered active if the number of shocks received by the test group is significantly higher than the control group by the Mann-Witney U test. The procedure:
Another test which has been used to assess anti-anxiety effects is a nonconditioned passive avoidance procedure described by [J. R. Vogel, B. Beer and D. E. Clody, "A Simple and Reliable Conflict Procedure for Testing Anti-Anxiety Agents", Psychopharmacologia, 21, 1-7 (1971)]. A conflict situation is induced in rats by a modification of this method.
Groups of 6 naive, Wistar strain rats, weighing 200-240 g each were deprived of water for 48 hours and food for 24 hours. The test compounds were administered in single or graded, oral or intraperitoneal doses, suspended in a 2% starch vehicle containing 0.5% v/v polyethylene glycol and one drop of polysorbate 80. Control animals received the vehicle alone. At 30 to 60 minutes each rat was placed in an individual plexiglass chamber. Water was available ad libitum from a tap located in the rear of the chamber. A 0.7 milliampere DC shocking current was established between the stainless steel grid floor and the tap. After 20 licks of non-shocked drinking, a shock was delivered for 2 seconds and then further shocks were delivered on a ratio of one shock for 2 seconds for every 20 licks. This was continued for a total of 3 minutes. The number of shocks taken by each rat during the 3 minute interval was recorded and compared to a control group. […]

Test [3] concerns Brain-Specific Receptors of Rats. In words: Inhibition of the binding of 3H-benzodiazepine to brain-specific receptors of rats. On the set-up: species or system rat (Wistar). The note with it: 3H-diazepam 1.5 nM or 3H-flunitrazepam 1.0 nM; rat cortex P2 fraction; test concentration not given.

As a reminder, the % Inhibition is the share of the control response that was lost under treatment.

`O=C(c1ccc2c(c1)OCO2)c1cnn2c(-c3cccnc3)ccnc12` [1,3-benzodioxol-5-yl[7-(3-pyridinyl)pyrazolo[1,5-a]pyrimidin-3-yl]methanone]: in test [1], the responders at 25 mg/kg was determined as 50%. The “Result (nonconditioned passive avoidance)” value (“Result” for short) in test [2] (dose 25.0 mg/kg) was “Active”.
As for `O=C(c1ccncc1)c1cnn2c(-c3cccnc3)ccnc12` [4-pyridinyl[7-(3-pyridinyl)pyrazolo[1,5-a]pyrimidin-3-yl]methanone], the responders at 25 mg/kg in test [1] is 100%. Also, in test [2] (dose 25.0 mg/kg), the “Result” value is reported as “Active”.
As for `O=C(c1ccncc1)c1cnn2c(-c3cccc(C(F)(F)F)c3)ccnc12` [4-pyridinyl[7-[3-(trifluoromethyl)phenyl]pyrazolo[1,5-a]pyrimidin-3-yl]methanone], the responders at 25 mg/kg in test [1] amounted to 100%. Moreover, the “Result” value in test [2] (dose 25.0 mg/kg) is recorded as “Active”.
Turning to `O=C(c1ccccc1F)c1cnn2c(-c3cccnc3)ccnc12` [(2-fluorophenyl)[7-(3-pyridinyl)pyrazolo[1,5-a]pyrimidin-3-yl]methanone], the responders at 25 mg/kg in test [1] stood at 100%. For the same molecule, the “Result” value in test [2] (dose 25.0 mg/kg) is on record as “Active”.
For `O=C(c1ccccc1F)c1cnn2c(-c3ccncc3)ccnc12` [(2-fluorophenyl)[7-(4-pyridinyl)pyrazolo[1,5-a]pyrimidin-3-yl]methanone] the same measures were 50% and “Active”.
The matching figures for `O=C(c1ccccc1F)c1cnn2c(-c3cccc(C(F)(F)F)c3)ccnc12` [(2-fluorophenyl)[7-[3-(trifluoromethyl)phenyl]pyrazolo[1,5-a]pyrimidin-3-yl]methanone]: 50% and “Active”.
For the molecule `COc1ccc(C(=O)c2cnn3c(-c4cccc(C(F)(F)F)c4)ccnc23)cc1OC` [(3,4-dimethoxyphenyl)[7-[3-(trifluoromethyl)phenyl]pyrazolo[1,5-a]pyrimidin-3-yl]methanone], the responders at 25 mg/kg in test [1] was determined as 50%. The “% Inhibition” value in test [3] was 94%.
For `O=C(c1cccc(F)c1)c1cnn2c(-c3ccncc3)ccnc12` [(3-fluorophenyl)[7-(4-pyridinyl)pyrazolo[1,5-a]pyrimidin-3-yl]methanone], the responders at 25 mg/kg in test [1] stood at 100%. For the same molecule, the “Result” value in test [2] (dose 25.0 mg/kg) was “Active”.
In the case of `COc1cccc(C(=O)c2cnn3c(-c4cccnc4)ccnc23)c1` [(3-methoxyphenyl)[7-(3-pyridinyl)pyrazolo[1,5-a]pyrimidin-3-yl]methanone], the responders at 25 mg/kg in test [1] was found to be 75%. In addition, the “Result” value in test [2] (dose 25.0 mg/kg) was “Active”.
As for `Cc1cccc(C(=O)c2cnn3c(-c4cccc(C)c4)ccnc23)c1` [(3-methylphenyl)[7-(3-methylphenyl)pyrazolo[1,5-a]pyrimidin-3-yl]methanone], the responders at 25 mg/kg in test [1] worked out at 25%. For the same molecule, in test [3], the “% Inhibition” value came out at 75%.
For `Cc1cccc(C(=O)c2cnn3c(-c4cccc(C(F)(F)F)c4)ccnc23)c1` [(3-methylphenyl)[7-[3-(trifluoromethyl)phenyl]pyrazolo[1,5-a]pyrimidin-3-yl]methanone] the same measures were 25% and 67%.
Consider `CCc1ccc(C(=O)c2cnn3c(-c4cccnc4)ccnc23)cc1` [(4-ethylphenyl)[7-(3-pyridinyl)pyrazolo[1,5-a]pyrimidin-3-yl]methanone], for which the responders at 25 mg/kg in test [1] stood at 100%. In addition, the “Result” value in test [2] (dose 25.0 mg/kg) is “Active”.
With `O=C(c1ccc(F)cc1)c1cnn2c(-c3ccccc3F)ccnc12` [(4-fluorophenyl)[7-(2-fluorophenyl)pyrazolo[1,5-a]pyrimidin-3-yl]methanone], the responders at 25 mg/kg in test [1] is 50%. For the same molecule, the “% Inhibition” value in test [3] was found to be 22%.
The matching figures for `O=C(c1ccc(F)cc1)c1cnn2c(-c3ccccn3)ccnc12` [(4-fluorophenyl)[7-(2-pyridinyl)pyrazolo[1,5-a]pyrimidin-3-yl]methanone]: 50% and 17%.
As for `O=C(c1ccc(F)cc1)c1cnn2c(-c3cccnc3)ccnc12` [(4-fluorophenyl)[7-(3-pyridinyl)pyrazolo[1,5-a]pyrimidin-3-yl]methanone], the responders at 25 mg/kg in test [1] is 63%. In test [2] (dose 25.0 mg/kg), the “Result” value was “Active”.
Turning to `Cc1ccc(C(=O)c2cnn3c(-c4ccncc4)ccnc23)cc1` [(4-methylphenyl)[7-(4-pyridinyl)pyrazolo[1,5-a]pyrimidin-3-yl]methanone], in test [1], the responders at 25 mg/kg came out at 50%. Moreover, the “% Inhibition” value in test [3] was found to be 19%.
For `Cc1cnc2c(C(=O)c3ccccc3)cnn2c1-c1ccccc1` [(6-methyl-7-phenylpyrazolo[1,5-a]pyrimidin-3-yl)phenyl-methanone], the responders at 25 mg/kg in test [1] was 25%. Also, in test [3], the “% Inhibition” value is 24%.
For the molecule `CC(=O)N(C)c1ccc(-c2ccnc3c(C(=O)c4ccccc4)cnn23)cc1` [N--[4-(3-benzoylpyrazolo[1,5-a]pyrimidin-7-yl)phenyl]-N--methylacetamide], in test [2] (dose 25.0 mg/kg), the “Result” value is reported as “Active”.
On to `CCC(=O)N(CC)c1cccc(-c2ccnc3c(C(=O)c4ccco4)cnn23)c1` [N-Ethyl-N-[3-[3-(2-furanylcarbonyl)pyrazolo[1,5-a]pyrimidin-7-yl]phenyl]propanamide], for which the “Result” value in test [2] (dose 12.5 mg/kg) was “Active”.
Take `Cc1nn2c(-c3cccnc3)ccnc2c1C(=O)c1ccccc1` [[2-methyl-7-(3-pyridinyl)pyrazolo[1,5-a]pyrimidin-3-yl]phenyl-methanone]: the responders at 25 mg/kg in test [1] stood at 50%. Also, the “% Inhibition” value in test [3] is 52%.
For `Cc1cc(-c2cc[n+]([O-])cc2)n2ncc(C(=O)c3ccccc3)c2n1` [[5-Methyl-7-(4-pyridinyl)pyrazolo[1,5-a]pyrimidin-3-yl]phenyl-methanone, pyridine-1-oxide] the same measures were 25% and 52%.
On to `Cc1cc(-c2ccc(Cl)c(Cl)c2)n2ncc(C(=O)c3ccccc3)c2n1` [[7-(3,4-dichlorophenyl)-5-methylpyrazolo[1,5-a]pyrimidin-3-yl]phenyl-methanone], for which the responders at 25 mg/kg in test [1] was 25%. Besides, the “% Inhibition” value in test [3] amounted to 97%.
For `COc1ccc(-c2cc(C)nc3c(C(=O)c4ccc(F)cc4)cnn23)cc1OC` [[7-(3,4-dimethoxyphenyl)-5-methylpyrazolo[1,5-a]pyrimidin-3-yl](4-fluorophenyl)methanone] the same measures were 25% and 48%.
For `O=C(c1ccccc1)c1cnn2c(-c3cc(Cl)cc(Cl)c3)ccnc12` [[7-(3,5-dichlorophenyl)pyrazolo[1,5-a]pyrimidin-3-yl]phenyl-methanone] the same measures were 25% and 20%.
Regarding `O=C(c1cccs1)c1cnn2c(-c3cccnc3)ccnc12` [[7-(3-pyridinyl)pyrazolo[1,5-a]pyrimidin-3-yl]-2-thienyl-methanone], the responders at 25 mg/kg in test [1] is 75%. Also, the “% Inhibition” value in test [3] was 82%.
Consider `O=C(c1ccccc1)c1cnn2c(-c3cc(C(F)(F)F)ccc3Cl)ccnc12` [[7-[2-chloro-5-(trifluoromethyl)phenyl]pyrazolo[1,5-a]pyrimidin-3-yl]phenyl-methanone], for which the “% Inhibition” value in test [3] is 86%.
Regarding `CSc1cccc(-c2ccnc3c(C(=O)c4ccccc4)cnn23)c1` [[7-[3-(methylthio)phenyl]pyrazolo[1,5-a]pyrimidin-3-yl]phenyl-methanone], the “% Inhibition” value in test [3] amounted to 98%.
With `O=C(c1ccccc1)c1cnn2c(-c3ccccn3)ccnc12` [phenyl[7-(2-pyridinyl)pyrazolo[1,5-a]pyrimidin-3-yl]methanone], the “% Inhibition” value in test [3] stood at 30%.
Regarding `O=C(c1ccccc1)c1cnn2c(-c3cccs3)ccnc12` [phenyl[7-(2-thienyl)pyrazolo[1,5-a]pyrimidin-3-yl]methanone], in test [3], the “% Inhibition” value was 96%.
Consider `COc1cc(-c2ccnc3c(C(=O)c4ccccc4)cnn23)cc(OC)c1OC` [phenyl[7-(3,4,5-trimethoxyphenyl)pyrazolo[1,5-a]pyrimidin-3-yl]methanone], for which, in test [3], the “% Inhibition” value was found to be 24%.
As for `O=C(c1ccccc1)c1cnn2c(-c3ccsc3)ccnc12` [phenyl[7-(3-thienyl)pyrazolo[1,5-a]pyrimidin-3-yl]methanone], in test [3], the “% Inhibition” value is 96%.

For the origin of these results see patent US4521422A, “Aryl and heteroaryl[7-(aryl and heteroaryl)pyrazolo[1,5-a]pyrimidin-3-yl]methanones” (American Cyanamid Company, priority 1984, dated 1985).
